Experimental data from EP0252983B1, “SALTS OF N-(VINYLOXIETHYL)DITHIOCARBAMIC ACID, METHOD OF OBTAINING THEREOF AND […] ON THEM” (priority 1985, dated 1987).

Legend:
[1] = Storage stability (descriptive); format: physicochemical
Penicillium charlesii = experiment: Mycelial growth inhibition on agar (contact activity); format: cell-based; details: Würzeagar
Procedure: (§1) Die Prüfungen werden nach dem Verfahren zur Ermittlung der Kontaktaktivität durchgeführt. Man verwendet das in Wasser gelöste Kalium-N-(vinyloxyäthyl)dithiocarbamat, führt es in ein Nährmedium ein und vergießt auf Petri-Schalen. Nach 24 Stunden wird mit Pilzmyzelium nach einem Stichverfahren geimpft. Dann temperiert man die Schalen innerhalb von 5 Tagen bei einer zwischen 24 und 26 °C liegenden Temperatur und mißt den Durchmesser von Pilzkolonien, ermittelt den Prozentsatz der Hemmung des Myzelwachstums (S) ausgehend von Angaben am 5. Tag nach der Abbott-Formel [drawing 13] worin dc für den Durchmesser der Pilzkolonien, de für den Durchmesser von Pilzkolonien in der Schale stehen, wo ein die zu prüfenden Stoffe enthaltendes Medium vorhanden ist. Dieses Verfahren zur Ermittlung der mikrobiologischen Aktivität ist in anderen Beispielen verwendet.
(§2) Die Pilzkulturen werden auf Würzeagar gezüchtet. Ergebnisse, erhalten bei der Prüfung der fungiziden Aktivität gegen reine Kulturen von Mikroorganismen, welche Bioschädigungen hervorrufen, sind in der Tabelle 1 dargestellt.

[2] = test system: Cladosporium cladosporioides; experiment: as above; format: cell-based; details: Würzeagar
Procedure: as §1, §2

Walrotiela subiculesa = experiment: as above; format: cell-based; details: Würzeagar
Procedure: as §1, §2

Cladosporium resinae = experiment: as above; format: cell-based; details: Würzeagar
Procedure: as §1, §2

Acremonium charticola = experiment: as above; format: cell-based; details: Würzeagar
Procedure: as §1, §2

Geotrichum candidum Link = experiment: as above; format: cell-based; details: Würzeagar
Procedure: as §1, §2

Penicillium chrysogenum = experiment: as above; format: cell-based; details: Würzeagar
Procedure: as §1, §2

Acremonium cowum = experiment: as above; format: cell-based; details: Würzeagar
Procedure: as §1, §2

Oidium Sp. = experiment: as above; format: cell-based; details: Würzeagar
Procedure: as §1, §2

[3] = Solubility in water (descriptive); format: physicochemical
[4] = Acute toxicity (LD50) in mice; format: in vivo, weißen Mäusen; details: mouse, in vivo, ip; intraabdominale Applikation an weißen Mäusen; read-out: LD50
Fusarium sambucinum = experiment: Mycelial growth inhibition on agar (contact activity); format: cell-based; details: concentration not given
Procedure: as §1
(§3) Tabelle 2 zeigt die Angaben für die fungizide Aktivität von Kalium-N-(vinyloxyäthyl)dithiocarbamat und bekannten wirksamen Fungiziden Poly arbazin und TMTD. Der zu prüfende Stoff wurde im Laufe der Versuche in Wasser aufgelöst, und die Kulturen wurden auf einem Kartoffel-Glukose-Nährmedium gezüchtet.

Fusarium moniliforme = experiment: as above; format: cell-based; details: concentration not given
Procedure: as §1, §3

Psoroptes cuniculi = experiment: Acaricidal activity on isolated mites; format: in vivo
Procedure: Die akarizide Aktivität der Stoffe wird an isolierten Milben Psoroptes cuniculi als Erreger der Psoroptesräude bei Kaninchen geprüft. Von frischen Verkrustungen von Kaninchen mit Psoroptesräude, werden zu diesem Zweck 50 Milbenexemplare (Larven, Nymphen, Imago) gewählt und in Petri-Schalen auf ein Filterpapierblatt übertragen. Dann bringt man auf Milben und die ganze Blattoberfläche 1,5 ml zu prüfende wäßrige Stofflösung in destilliertem Wasser auf. Die Schale wird mit Deckel verschlossen und in einen Thermostat bei 30 °C und Feuchtegehalt von 90 % angeordnet. Der Wirkstoff wird als wäßrige Lösung mit einer zwischen 0,0039 und 4 % liegenden Konzentration genommen. Als Vergleichsmuster dient gleichzeitig eine wäßrige Lösung von Chlorophos. Milben werden im Kontrollversuch (Kontrolle auf Lebensfähigkeit)mit 1,5 ml physiologischer Lösung behandelt und in einen anderen Thermostat unter gleichen Temperatur- und Feuchtigkeitsbedingungen aufgestellt.
Nach 1, 2, 4, 6 Stunden und alle 24 Stunden betrachtet man die Milben im Mikroskop und zählt die toten Milben. Aufgrund der Milbenvernichtung durch einen 24-stündigen Kontakt mit dem Wirkstoff ermittelt man die LK-50 Werte. Die Versuche werden 5mal wiederholt. Arithmetische Mittelwerte gibt Tabelle 14 an.

Rhizoctonia solani = experiment: Mycelial growth inhibition on agar (contact activity); format: cell-based; details: concentration not given
Procedure: as §1
Die fungizide Aktivität von Zink-bis-(N-vinyloxyäthyldithiocarbamat) gegen reine Kulturen von Pilzen Fusarium moniliforme, Fusarium sambucinum, Aspergillus niger, Rhizoctonia solani, Cladosporium resinae, Cladosporium cladosporioides, Acremonium cowum, Acremonium charticola, Penicillium chrysogenum, Penicillium charlesii Smith, Penicillium funiculosum, Geotrichum candidum Link, Walrotiela subiculesa, Oidium sp., Paecilomyces varioti, Stereum hirsutum wird gemäß Beispiel 8 untersucht.
(§4) Als Nährmedium dient Würzeagar.

Sphaeropsis malorum = experiment: as above; format: cell-based; details: concentration not given
Procedure: as §1, §4

Xantomonas malvacearum = experiment: Bacterial growth inhibition; format: cell-based; details: concentration not given
Aspergillus niger = experiment: Mycelial growth inhibition on agar (contact activity); format: cell-based; details: concentration not given

## C=COCCNC(=S)S [Natrium-N-(vinyloxyäthyl)dithiocarbamat]
[1]
  Lagerbeständigkeit: lagerbeständig
Penicillium charlesii; Präparatkonzentration 0,0015 %
  Myzelhemmung in %: 25%
Penicillium charlesii; Präparatkonzentration 0,003 %
  Myzelhemmung in %: 40%
Penicillium charlesii; Präparatkonzentration 0,006 %
  Myzelhemmung in %: 90%
Penicillium charlesii; Präparatkonzentration 0,012 %
  Myzelhemmung in %: 100%
[2]; Präparatkonzentration 0,0015 %
  Myzelhemmung in %: 100%
[2]; Präparatkonzentration 0,003 %
  Myzelhemmung in %: 100%
[2]; Präparatkonzentration 0,006 %
  Myzelhemmung in %: 100%
[2]; Präparatkonzentration 0,012 %
  Myzelhemmung in %: 100%
Walrotiela subiculesa; Präparatkonzentration 0,0015 %
  Myzelhemmung in %: 100%
Walrotiela subiculesa; Präparatkonzentration 0,003 %
  Myzelhemmung in %: 100%
Walrotiela subiculesa; Präparatkonzentration 0,006 %
  Myzelhemmung in %: 100%
Walrotiela subiculesa; Präparatkonzentration 0,012 %
  Myzelhemmung in %: 100%
Cladosporium resinae; Präparatkonzentration 0,0015 %
  Myzelhemmung in %: 90%
Cladosporium resinae; Präparatkonzentration 0,003 %
  Myzelhemmung in %: 100%
Cladosporium resinae; Präparatkonzentration 0,006 %
  Myzelhemmung in %: 100%
Cladosporium resinae; Präparatkonzentration 0,012 %
  Myzelhemmung in %: 100%
Acremonium charticola; Präparatkonzentration 0,0015 %
  Myzelhemmung in %: 100%
Acremonium charticola; Präparatkonzentration 0,003 %
  Myzelhemmung in %: 100%
Acremonium charticola; Präparatkonzentration 0,006 %
  Myzelhemmung in %: 100%
Acremonium charticola; Präparatkonzentration 0,012 %
  Myzelhemmung in %: 100%
Geotrichum candidum Link; Präparatkonzentration 0,0015 %
  Myzelhemmung in %: 5%
Geotrichum candidum Link; Präparatkonzentration 0,003 %
  Myzelhemmung in %: 40%
Geotrichum candidum Link; Präparatkonzentration 0,006 %
  Myzelhemmung in %: 75%
Geotrichum candidum Link; Präparatkonzentration 0,012 %
  Myzelhemmung in %: 100%
Penicillium chrysogenum; Präparatkonzentration 0,0015 %
  Myzelhemmung in %: 5%
Penicillium chrysogenum; Präparatkonzentration 0,003 %
  Myzelhemmung in %: 20%
Penicillium chrysogenum; Präparatkonzentration 0,006 %
  Myzelhemmung in %: 80%
Penicillium chrysogenum; Präparatkonzentration 0,012 %
  Myzelhemmung in %: 100%
Acremonium cowum; Präparatkonzentration 0,0015 %
  Myzelhemmung in %: 100%
Acremonium cowum; Präparatkonzentration 0,003 %
  Myzelhemmung in %: 100%
Acremonium cowum; Präparatkonzentration 0,006 %
  Myzelhemmung in %: 100%
Acremonium cowum; Präparatkonzentration 0,012 %
  Myzelhemmung in %: 100%
Oidium Sp.; Präparatkonzentration 0,0015 %
  Myzelhemmung in %: 60%
Oidium Sp.; Präparatkonzentration 0,003 %
  Myzelhemmung in %: 100%
Oidium Sp.; Präparatkonzentration 0,006 %
  Myzelhemmung in %: 100%
Oidium Sp.; Präparatkonzentration 0,012 %
  Myzelhemmung in %: 100%
[3]
  Löslichkeit in Wasser: gut
[4]
  LD50: 260 mg/kg
Fusarium sambucinum
  unterdrückt das Wachstum des Myzeliums der Pilze: 100%
Fusarium moniliforme
  unterdrückt das Wachstum des Myzeliums der Pilze: 100%
Psoroptes cuniculi; 24-stündiger Kontakt mit dem Wirkstoff
  LK-50 %: 0,0022%
Psoroptes cuniculi; Konzentration 0,0039 %
  Vernichtung von 100 % der Milben nach Stunden: 48 Stunden
Psoroptes cuniculi; Konzentration 0,0078 %
  Vernichtung von 100 % der Milben nach Stunden: 24 Stunden
Psoroptes cuniculi; Konzentration 0,0625 bis 0,125 %
  Vernichtung von 100 % der Milben nach Stunden: 6 Stunden
Psoroptes cuniculi; Konzentration 0,125 bis 0,5 %
  Vernichtung von 100 % der Milben nach Stunden: 4 Stunden
Psoroptes cuniculi; gegenüber Chlorophos
  selektive Toxizität gegen Räudemilben, dem Chlorophos überlegen: ~400 mal
Rhizoctonia solani
  unterdrückt das Wachstum des Myzeliums der Pilze: 100%
Sphaeropsis malorum
  unterdrückt das Wachstum des Myzeliums der Pilze: 100%
Xantomonas malvacearum
  unterdrückt das Wachstum von Bakterien: 33%
Aspergillus niger
  unterdrückt das Wachstum des Myzeliums der Pilze: 100%
